The record followed here is US6806267B1, “Apoptosis-inducing compounds” (priority 1998, dated 2004).

In one test the test system is HL-60 cells. The test can be described thus: Apoptosis in HL-60 cells, cytospin and Rapi-Diff staining. Particulars: for cytotoxicity at 10 µM: Homo sapiens, HL-60, 16 h, read-out: % Apoptosis; for protection against PBOX-6 induced apoptosis: HL-60, N-acetylcysteine 5 mM or TEMPO 1 μM, 30 min prior to PBOX-6 8 hours.
The test system of the next test is K562 cells. Briefly: Apoptosis in K562 cells, cytospin and staining. The format is cell-based, human. Particulars: for protection against PBOX-6 induced apoptosis: Vitamin E 1 hour or N-acetylcysteine 24 hours, then PBOX-6 16 hours.
For test [1], the system named is CML cell lines K562, KYO.1 and Lama 84. Briefly: Apoptosis in CML cell lines, cytospin and staining. The format is cell-based, human.

As for `COc1ccc(C2=C(OC(=O)c3ccncc3)c3cccn3-c3ccccc3S2)cc1` [PBOX-28, 7-Isonicotinoyloxy-6-p-methoxyphenylpyrrolo[2,1-d][1,5]-benothiazepine], in the test with HL-60 cells, the cytotoxicity at 10 µM came to 31.1 ± 1.7%.

Regarding `CC(=O)N[C@@H](CS)C(=O)O` [N-acetylcysteine, reference compound], the figures for the “protection against PBOX-6 induced apoptosis” value (shortened to “protection”) in the test on K562 cells (K562) and in the test with HL-60 cells were “failed to protect” and “Neither of these compounds were found to protect”, respectively.

With `CC(=O)OC1=C(c2cccc3ccccc23)Sc2ccccc2-n2cccc21` [PBOX-9, 7-Acetoxy-6-(1-naphthyl)pyrrolo[2,1-d][1,5]benzothiazepine], the cytotoxicity at 10 µM in the test with HL-60 cells was 40.4 ± 3%.

With z-DEVD-fmk [reference compound], the “effect of pretreatment on PBOX-6 induced apoptosis” value in test [1] was “failed to prevent the induction of apoptosis”. In addition, in the test on HL-60 cells, the “effect of pre-treatment on morphological signs of apoptosis induced by PBOX-6” value was “inhibited”.

As for `CCCC(=O)OC1=C(c2ccc(OC)cc2)[S+]([O-])c2ccccc2-n2cccc21` (centres unmarked) [PBOX-30, 7-(Butyryloxy)-6-(p-methoxyphenyl)pyrrolo[2,1-d][1,5]-benzothiazepine 5-Oxide], the cytotoxicity at 10 µM with HL-60 cells turned out to be 33.1 ± 1.6%.

For the compound `O=C1c2c(O)ccc(O)c2C(=O)c2c(NCCNCCO)ccc(NCCNCCO)c21` [mitoxanthrone], the “effect of pretreatment on PBOX-6 induced apoptosis” value in the test on K562 cells (K562, 1 hour prior to PBOX-6 16 hours) was “protects against apoptosis”. In addition, the induction of apoptosis entry with K562 cells (K562 cells) is recorded as “does not induce apoptosis”.

Turning to `CN(C)C(=O)OC1=C(c2cccc3ccccc23)Sc2ccccc2-n2cccc21` [PBOX-8, 7-((Dimethylcarbamoyl)oxy)-6-(1-naphthyl)pyrrolo[2,1-d][1,5]benzothiazepine], the cytotoxicity at 10 µM in the test on HL-60 cells is 38.6 ± 3.1%.

On to `CC(=O)OC1=C(c2cccc3ccccc23)Oc2cccnc2-n2cccc21` [PBOX-12, 7-Acetoxy-6-(1-naphthyl)pyrrolo[1,2-d]pyrido[3,2-b][1,4]oiazepine], for which the cytotoxicity at 10 µM in the test with HL-60 cells amounted to 27.1 ± 2.7%.

Regarding `CC(=O)OC1=C(c2ccc(C)cc2)Oc2ccccc2-n2cccc21` [PBOX-24, 7-Acetoxy-6p-tolylpyrrolo[2,1-d][1,5]benzoxazepine], the cytotoxicity at 10 µM in the test with HL-60 cells was determined as 7 ± 1.2%.

In the case of Vitamin E, in the test on K562 cells (K562), the “protection” value is recorded as “failed to protect”.

For the compound `CCNC(=O)OC1=C(c2ccccc2)Oc2ccccc2-n2cccc21` [PBOX-25, 7-[(Ethylcarbamoyl)oxy]-6-phenylpyrrolo[2,1-d][1,5]benzoxazepine], in the test with HL-60 cells, the cytotoxicity at 10 µM came to 19.2 ± 3%.

As for `CC1(C)CCCC(C)(C)N1[O]` [TEMPO, reference compound], in the test on HL-60 cells, the “protection” value is “Neither of these compounds were found to protect”.

In the case of `CCN(CC)C(=O)OC1=C(c2ccccc2)Oc2cccnc2-n2cccc21` [PBOX-26, 7-((Diethylcarbamoyl)oxy)-6-phenylpyrrolo[1,2-d]pyrido[3,2-b][1,4]oxazepine], in the test on HL-60 cells, the cytotoxicity at 10 µM worked out at 7.8 ± 2.3%.

For the compound `CO[C@H]1[C@@H](OC)C[C@H](C)[C@@H](OC)C2=CC(=O)C=C(NC(=O)/C(C)=C/C=C\[C@H](OC)[C@@H](OC(N)=O)/C(C)=C/[C@@H]1C)C2=O` [herbimycin A], the “effect of tyrosine kinase inhibitor pretreatment on PBOX-6 induced apoptosis” value with K562 cells (K562, genistein 100 μM, herbimycin A 5 μM, tyrophostin 200 μM) is “reduced levels of apoptosis”.
